Data as given in patent US20250019339A1, “SOLVENT COMPOUNDS FOR USE AS REPLACEMENTS FOR SLOW EVAPORATING SOLVENTS” (TBF ENVIRONMENTAL TECHNOLOGY INC., priority 2018, published 2025).

Columns and labels:
Format in all cases: physicochemical
[1] = Flash point, PMCC closed cup; conditions: PMCC (Penske Martin Closed Cup)
Procedure: (§1) (420.8° F.) • Flash Point: 85.5° C.

[2] = Kauri-Butanol value
[3] = Evaporation rate
[4] = Specific gravity
[5] = Boiling point
[6] = Sustained combustion tests
Procedure: as §1

[7] = Vapour pressure; conditions: @25° C.

Flash Point [1]: 85.5 °C
Kauri-Butanol Value [2]: 77.5
Evaporation rate [3]: 0.04
Specific Gravity [4]: 0.916
Boiling Point [5]: 216 °C
Sustained combustion [6]: did not sustain combustion
Vapour pressure [7]: 0.09 mm Hg
SMILES: CCCCC(CC)COC(=O)OC (stereo not shown) [BibaSol, 2-ethylhexyl methyl carbonate]
